Laboratory results from paper PMC7730438, “Generation of KS-58 as the first K-Ras(G12D)-inhibitory peptide presenting anti-cancer activity in vivo” (Scientific Reports, 2020).
“And” between values parts separate entries of the source, which are not always exact repeats. Identical values can stand only once. Starred links: 1 amine or outer side, 2 acyl side, 3 side chain; linkers in the order of their positions; H or OH if unused. Positions of bridges follow the written chain, without caps; N, C: chain ends. Non-standard residues stand in square brackets, D forms with d. Residues, ends and D or L forms follow the SMILES beside them. Groups on a side chain read outwards from the residue. *: point of attachment. Biotin = O=C1N[C@H]2[C@H](CS[C@H]2CCCCC(=O)*)N1; Phe(4-F) = N[C@@H](Cc1ccc(F)cc1)C(=O)O; X1 = CCCCCCC[C@H](N[*:1])C(=O)[*:2]; Nle = CCCC[C@H](N)C(=O)O; X2 = C(C[*:1])C[*:2]; Ahx = NCCCCCC(=O)O; βAla = NCCC(=O)O

Columns and labels:
[1] = tested on: PANC-1 xenografts (pancreas weight); assay: Combination administration test of KS-58 and gemcitabine; type: in vivo, mice; conditions: gemcitabine alone, 40 mg/kg intraperitoneally once every 4 days for 4 weeks
Method: To establish orthotropic xenograft tumor models, 2.5 × 10^6 cells/50 µL of PANC-1 cells were injected into the pancreas of BALB/cAJcl-nu/nu male mice (8 weeks old; CLEA Japan, Inc.). KS-58 was dissolved in DMSO and then tenfold diluted by saline. The peptide solution was then injected intravenously to the mice bearing tumors once every 2 days for 4 weeks (40 mg/kg, n = 7). Organ weights of the pancreas, liver, and kidney were measured. In combination administration test, gemcitabine hydrochloride solution (Nipponkayaku) was tenfold diluted by saline and then injected intraperitoneally to the mice bearing tumors once every 4 days for 4 weeks (40 mg/kg, n = 10), and peptide solution prepared as a same manner described above was injected intravenously to the mice bearing tumors once every 2 days for 4 weeks (10, 20, or 40 mg/kg, n = 10). Organ weights of the pancreas were measured.

A427 cells = assay: Cell proliferation assay (CellTiter-Glo, 72 h); type: cell-based, human; conditions: A427 (G12D), peptide 30 µM, n = 4, ± SEM
Method: A427 (ATCC HTB-53), A549 (ATCC CCL-185), H1975 (ATCC CRL-5908), PANC-1 (ATCC CRL-1469), MIA PaCa-2 (ATCC CRL-1420), and Capan-1 (ATCC HTB-79) cells were purchased from ATCC, and each cell was cultured in medium supplemented with 10% fetal bovine serum (FBS), according to the protocol recommended by the manufacture.
The effect of peptides on cell proliferation of A427, A549, H1975, PANC-1, MIA PaCa-2, and Capan-1 cells was determined by 72 h exposure to peptides. Cells were seeded at 1000 cells/well in 96-well tissue culture plates in each growth media and allowed to adhere overnight on day 0. Peptides were solved in DMSO and then diluted with each growth media for a constant final DMSO concentration of 0.5%. Media in the wells were removed and replaced with diluted peptide solutions, and cells were incubated for 3 days. During the incubation, medium containing the peptides was replaced every day. Relative cell numbers were estimated using CellTiter-Glo assay kit (G7570, Promega, WI, USA) according to the manufacturer’s instructions. Luminescence was detected using SpectraMax i3x (MOLECULAR DEVICES, CA, USA). Cell proliferation rate (%) was calculated based on cell numbers at day 0 as 0% and at day 3 without peptide treatment as 100%.

[2] = target: T1, K-Ras(G12D)^GDP–SOS1 interaction (Homo sapiens, UniProt P01116, G12D); assay: Intracellular PPI inhibition assay using NanoBiT in HEK293T cells; type: cell-based; conditions: peptide 30 µM, n = 4
T1 construct: host or cells: HEK293T
Method: (§1) Intracellular protein–protein interaction (PPI) inhibition assays were carried out using the NanoBiT system (Promega). Three kinds of plasmids with CMV promoters, which encodes human K-Ras(G12D) fusing SmBiT to the N-terminus, encodes human SOS1 fusing LgBiT to the C-terminus, and encodes human BRAF fusing LgBiT to the C-terminus, were prepared by Promega. Each combination of plasmids was transfected to HEK293T cells by FuGENE HD Reagent (E2312, […]). After 30 h incubation at 37 °C under 5% CO2, the cells were recovered, and seeded to 96-well tissue culture white plate with 10% FBS containing DMEM, and incubated overnight. Peptides were added to the plate and incubated for another 2 h. Nano-Glo (Promega, N2011) was directly added to the plate, and luminescence was immediately monitored. Intracellular K-Ras(G12D)^GDP–SOS1 and K-Ras(G12D)^GTP–BRAF interactions (%) were calculated based on no peptide treatment as 100% and only transfection of plasmid encoding LgBiT fusion protein as 0%.

[3] = target: T2, K-Ras(G12D)^GTP–BRAF interaction (Homo sapiens, UniProt P01116, G12D); assay: as above; type: cell-based; conditions: peptide 30 µM, n = 4
T2 construct: host or cells: HEK293T
Method: as §1

[4] = target: Recombinant human K-Ras(G12D) (human) (UniProt P01116)
[5] = target: SmBiT-fused K-Ras(G12D) (human) (UniProt P01116); assay: split reporter (BiFC, NanoBiT); NanoBiT in transfected HEK293T cells; peptides (30 µM) added to the cells for 2 h; remaining K-Ras(G12D)-SOS1 or K-Ras(G12D)-BRAF luminescence in % of no peptide
[6] = target: T3, recombinant K-Ras(G12D) protein (Homo sapiens, UniProt P01116, G12D); assay: Competition binding assay (ELISA) against Biotin-KRpep-2d; conditions: competitive inhibition of Biotin-KRpep-2d (100 nM) binding; n = 4, ± SEM
T3 construct: purchased Abcam ab268712
Method: (§2) Ras protein was directly coated to wells of Nunc MaxiSorp microplate in PBS containing 0.01 mM GDP and 10 mM MgCl2 overnight at 4 °C. The wells were blocked in PBS containing 0.1% bovine serum albumin (BSA) for 0.5 h at 25 °C.
For competition binding assays, Ras protein (250 ng/mL) was coated to wells of Nunc MaxiSorp 96-well clear plate (439454) as described above. […] The amounts of HRP in the wells were measured by absorbance at 450 nm.

[7] = target: T3, recombinant K-Ras(G12D) protein; assay: Cell-free ELISA binding of biotin-labeled peptides; conditions: Fig. 4A
Method: as §2
For binding assays of biotin-labeled peptides, Ras protein (25 μg/mL) was coated to wells of Nunc MaxiSorp 96-well clear plate (439,454) as described above. After washing the wells three times using PBS containing 0.1% Tween20 (PBST), biotin-labeled peptides in PBS containing 0.025% BSA, 0.01 mM GDP, and 10 mM MgCl2 were added to the wells. After 0.5 h incubation at 25 °C, the wells were washed with PBST three times. Bound biotin-labeled peptides were detected using horseradish peroxidase (HRP)-conjugated streptavidin (SA) (ab7403, Abcam) and 1-Step Ultra TMB-ELISA Substrate Solution (34028, Thermo Fisher Scientific). The amounts of HRP in the wells were measured by absorbance to 450 nm.

Nc1ccn([C@@H]2O[C@H](CO)[C@@H](O)C2(F)F)c(=O)n1 [Gemcitabine, gemcitabine]
cell growth of PANC-1 (pancreas weight; Sham = 0%, vehicle = 100%) [1]: 66%

c(βAla-Pro-Nle-Cys-Anon-Ser-4fF-Asp-Pro-Trp-^DCys) [KS-58(monocyclic)]
Cell proliferation (%) (A427 cells): 87.1 ± 1.4%
Intracellular K-Ras(G12D)^GDP–SOS1 interaction (luminescence, %) [2]: weaker inhibition activity than KS-58
Intracellular K-Ras(G12D)^GTP–BRAF interaction (luminescence, %) [3]: weaker inhibition activity than KS-58

KS-58 (peptide)
cell proliferation (%) of A427 cells (K-Ras G12D) at 30 µM peptide, 72 h, CellTiter-Glo [4]: 21.1%
cell proliferation (%) of PANC-1 cells (K-Ras G12D) at 30 µM peptide, 72 h, CellTiter-Glo [4]: 50.1%
pERK (%) in A427 cells (K-Ras G12D) at 30 µM peptide [4]: 26%
pERK (%) in PANC-1 cells (K-Ras G12D) at 30 µM peptide [4]: 57.6%
percent of K-Ras(G12D)-BRAF NanoBiT luminescence left at 30 µM peptide [5]: 53.8%
percent of K-Ras(G12D)-SOS1 NanoBiT luminescence left at 30 µM peptide [5]: 35.5%

c[Arg-Arg-Arg-Arg-c(Dap-Pro-Nle-Trp-Anon-Dap-Cha-Asp-Pro-Trp-Asp)-Arg-Arg-Arg-Arg] [KS-36]
K-Ras(G12D)-binding activity, fold-value compared to the parental KRpep-2d set as 1.0 [6]: about 30 Fold
Cell proliferation (%) (A427 cells): 33.1% and 33.1 ± 9.6%

CCCCCCC[C@@H]1NC(=O)[C@@H]2CSCCCSC[C@@H](NC(=O)[C@H](Cc3c[nH]c4ccccc34)NC(=O)[C@H](CCCCNC(=O)CCCCCNC(=O)CCCC[C@@H]3SC[C@@H]4NC(=O)N[C@@H]43)NC(=O)[C@H](CC(=O)O)NC(=O)[C@H](Cc3ccc(F)cc3)NC(=O)[C@H](CO)NC1=O)C(=O)NCCC(=O)N1CCC[C@H]1C(=O)N[C@@H](CCCC)C(=O)N2 [Biotin-KS-58, c[βAla-Pro-Nle-c(Cys-Anon-Ser-4fF-Asp-Lys(εN-biotin)-Trp-^DCys)]] (cyclo([βAla]P[Nle]C[X1]S[Phe(4-F)]DK([Ahx-Biotin])W[dC]); linker 4-11 via X2)
Binding activity to K-Ras(G12D) protein in ELISA (in words) [7]: peptide concentration-dependent binding
